From article PMC6830242, “In vitro inhibition of Mycobacterium tuberculosis β-carbonic anhydrase 3 with Mono- and dithiocarbamates and evaluation of their toxicity using zebrafish developing embryos” (Journal of Enzyme Inhibition and Medicinal Chemistry, 2019)

molecular target: T1, Mtb β-CA3 (Mycobacterium tuberculosis, UniProt P96878); test: stopped-flow CO2 hydrase assay; format: biochemical
T1 construct: gene Rv3273
From the text: stopped-flow CO2 hydrase assay on Mtb β-CA3

T1 sequence (P96878 555-764 limits assumed): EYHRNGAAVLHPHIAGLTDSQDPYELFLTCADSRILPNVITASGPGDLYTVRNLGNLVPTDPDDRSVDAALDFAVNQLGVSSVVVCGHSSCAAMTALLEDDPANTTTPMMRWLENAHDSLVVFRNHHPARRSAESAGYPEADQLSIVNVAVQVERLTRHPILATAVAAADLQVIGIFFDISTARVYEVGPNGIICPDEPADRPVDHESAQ

Row | SMILES | Ki
1 | O=C(S)N1CCOCC1 [compound 2, MTC based morpholine 2] | 748 nM
2 | COc1ccc(CCNC(=O)S)cc1OC [compound 7, 3,4-dimethoxyphenylethyl derivative 7] | 97.9 nM
3 | O=C(S)NCCc1ccccc1 [compound 5, phenylethyl 5] | 93 nM
4 | CC(C)CN(CC(C)C)C(=S)S [compound 8, DTC 8] | 43 nM
5 | S=C(S)N1CCOCC1 [compound 9, morpholine DTC 9] | 2.4 nM
6 | O=C(S)N1CCN(C(=O)S)CC1 [compound 3, 3] | 812 nM
7 | O=C(CN1CCN(C(=S)S)CC1)NC1CCCCC1 [compound 11, DTC 11] | > 2000 nM
8 | S=C(S)N1CCN(C(=S)S)CC1 [compound 10, bis-piperazine derivative DTC 10] | 8 nM
9 | O=C(CN1CCN(C(=O)S)CC1)NC1CCCCC1 [compound 6, 6] | 781 nM
10 | CCCN(CCC)C(=O)S [compound 1, 1] | 559 nM
